Measurements from patent US20100167275A1, “Potassium channel mutants of the yeast Saccharomyces cerevisiae and their use for screening eukaryotic potassium channels” (sanofi-aventis Deutschland GmbH, priority 2000, published 2010).

How the values were obtained:
[1] = target: T1, human Kv1.5 channel (Homo sapiens, UniProt P22460, DEL187-187/DEL55-55/P188G/P307A/R154P); experiment: Complementation of growth deficiency by Kv1.5 in the presence of activators; type: cell-based
T1 construct: expressed in transfected cells; host or cells: Saccharomyces cerevisiae Δtrk1 Δtrk2 Δtok1 (YM195; also Δtrk1 Δtrk2 YM190), vector p423-GPD3
Excerpt: (§1) Each of the strains YM168 (Δtrk1 Δtrk2) and YM182 (Δtrk1 Δtrk2 Δtok1) was transformed with the human potassium channels Kv1.5 ((Fedida, D. et al, 1998); YM190 and YM195) and HERG1 ((Fedida, D. et al., 1998); YM191 and YM196) in p423-GPD3, respectively, as yeast expression vector. gpIRK1 ((Tang, W. et al., 1995); YM193 and YM198) acted as positive control in p423-GPD3 as yeast expression vector (Mumberg, D. et al., 1995; Ronicke, V. et al., 1997). The blank vector p423-GPD3 (YM189 and YM194) acted as negative control. The transformed yeast strains were plated onto (−)HIS/80 mM KCl medium. After this, patches of single colonies were replica-plated onto DPM/5 mM KCl (pH 6.5) to check the capacity of complementing the potassium deficiency.
(§2) Kv1.5: Rb^+ extends the hyperpolarization phase. This means that the inwardly directed K^+ flux is more prolonged and increases the possibility of complementing the growth deficiency.
The yeast strains YM 194 and YM 195 were tested in DPM/-HIS/5 mM KCl with 1 mM RbCl for the different growth behavior in liquid medium. To this end, 10 ml of overnight culture were set up in DPM/-HIS/80 mM KCl and, next morning, brought to an OD600 of 0.05 with the relevant media (final volume: 20 ml). The optical density at 600 nm was determined at defined intervals with the aid of a photometer.

[2] = target: T2, human HERG1 channel (Homo sapiens, UniProt Q12809); experiment: Complementation of growth deficiency by HERG1 on culture plates in the presence of activators; type: cell-based; conditions: 2 mM CsCl, DPM 5 mM KCl pH 6.5, FIG. 4
T2 construct: expressed in transfected cells; host or cells: Saccharomyces cerevisiae Δtrk1 Δtrk2 Δtok1 (YM182 background; strain YM196), vector p423-GPD3
Excerpt: as §1, §2
HERG: Cs^+ extends the hyperpolarization phase. This means that the inwardly directed K^+ flux is more prolonged and increases the possibility of complementing the growth deficiency. This channel is inhibited by Cs^+. IRK1: Cs^+ blocks this channel.

[3] = target: T3, gpIRK1 (Cavia porcellus, UniProt P52185); experiment: Complementation of growth deficiency by gpIRK1 in the presence of CsCl; type: cell-based, guinea pig; conditions: 2 mM CsCl
T3 construct: expressed in transfected cells; host or cells: Saccharomyces cerevisiae Δtrk1 Δtrk2 (YM193) and Δtrk1 Δtrk2 Δtok1 (YM198), vector p423-GPD3
T3 sequence (P52185 1-427): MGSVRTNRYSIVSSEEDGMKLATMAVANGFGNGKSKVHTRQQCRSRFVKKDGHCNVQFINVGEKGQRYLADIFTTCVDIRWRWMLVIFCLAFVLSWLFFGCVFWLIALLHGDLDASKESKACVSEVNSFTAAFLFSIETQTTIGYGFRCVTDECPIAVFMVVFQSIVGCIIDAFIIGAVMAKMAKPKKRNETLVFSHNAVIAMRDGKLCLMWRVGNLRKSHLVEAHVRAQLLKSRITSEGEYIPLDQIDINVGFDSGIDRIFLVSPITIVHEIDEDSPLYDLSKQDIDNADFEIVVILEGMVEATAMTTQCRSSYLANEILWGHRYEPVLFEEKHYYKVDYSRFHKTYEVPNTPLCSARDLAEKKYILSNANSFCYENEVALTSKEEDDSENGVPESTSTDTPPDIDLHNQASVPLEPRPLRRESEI
Excerpt: as §1

[4] = target: T4, human potassium channel ROMK2 (Homo sapiens, UniProt P48048); experiment: Growth of triple mutant Δtrk1Δtrk2Δtok1 expressing ROMK2 (YM256), OD 620 nm; type: cell-based; conditions: 2 mM RbCl
T4 construct: expressed in transfected cells; host or cells: Saccharomyces cerevisiae Δtrk1Δtrk2Δtok1, strain YM256, vector p423GPD
T4 sequence (P48048 1-372 isoform P48048-2): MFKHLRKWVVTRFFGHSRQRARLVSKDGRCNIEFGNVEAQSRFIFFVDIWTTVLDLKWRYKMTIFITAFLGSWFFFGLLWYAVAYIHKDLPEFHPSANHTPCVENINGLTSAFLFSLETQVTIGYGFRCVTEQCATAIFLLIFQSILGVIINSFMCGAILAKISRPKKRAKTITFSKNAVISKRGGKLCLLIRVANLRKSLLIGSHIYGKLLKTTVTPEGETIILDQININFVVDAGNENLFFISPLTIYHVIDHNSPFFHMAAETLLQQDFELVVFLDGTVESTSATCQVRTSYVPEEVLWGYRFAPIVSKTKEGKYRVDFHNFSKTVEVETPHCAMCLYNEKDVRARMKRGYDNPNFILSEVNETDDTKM
Excerpt: The human potassium channel ROMK2 ((Shuck, M. E. et al., 1994; Bock, J. H. et al., 1997); Sequence SEQ ID NO. 31 hROMK2) was subcloned into the yeast vector p423GPD and transformed into the triple mutant Δtrk1Δtrk2Δtok1.

[5] = tested on: triple mutant Δtrk1Δtrk2Δtok1 with p423GPD; experiment: Growth of triple mutant Δtrk1Δtrk2Δtok1 with blank vector p423GPD (YM194), OD 620 nm; type: cell-based, Saccharomyces cerevisiae; conditions: 2 mM RbCl; DPM-HIS 5 mM KCl, pH 6.5, 24 hours growth, starting OD 0.01
Experimental: The cell density was measured after 24 hours' growth (density of the starter culture: 0.01 OD620) via determination of the optical density at a wavelength of 620 nm. The values corresponded to the average of in each case 4 measurements±SD.

T1 sequence (P22460 with tags, fused parts or gaps DEL55-55/R154P/DEL187-187/P188G/P307A): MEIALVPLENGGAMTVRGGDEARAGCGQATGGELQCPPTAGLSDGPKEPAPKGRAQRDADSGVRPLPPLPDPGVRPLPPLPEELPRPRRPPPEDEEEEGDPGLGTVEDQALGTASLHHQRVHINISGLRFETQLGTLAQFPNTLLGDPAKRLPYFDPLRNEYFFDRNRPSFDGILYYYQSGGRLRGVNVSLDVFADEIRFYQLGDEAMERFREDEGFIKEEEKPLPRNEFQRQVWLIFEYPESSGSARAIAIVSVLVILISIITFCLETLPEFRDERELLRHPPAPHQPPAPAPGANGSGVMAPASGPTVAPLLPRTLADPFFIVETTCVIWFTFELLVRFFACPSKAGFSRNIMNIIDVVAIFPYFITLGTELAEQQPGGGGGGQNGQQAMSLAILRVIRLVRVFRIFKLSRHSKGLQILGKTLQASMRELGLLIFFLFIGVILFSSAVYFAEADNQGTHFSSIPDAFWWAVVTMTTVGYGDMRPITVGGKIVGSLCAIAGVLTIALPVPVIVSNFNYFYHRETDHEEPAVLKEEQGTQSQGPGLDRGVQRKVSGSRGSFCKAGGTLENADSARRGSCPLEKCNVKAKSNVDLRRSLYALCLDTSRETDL
T2 sequence (Q12809 whole entry): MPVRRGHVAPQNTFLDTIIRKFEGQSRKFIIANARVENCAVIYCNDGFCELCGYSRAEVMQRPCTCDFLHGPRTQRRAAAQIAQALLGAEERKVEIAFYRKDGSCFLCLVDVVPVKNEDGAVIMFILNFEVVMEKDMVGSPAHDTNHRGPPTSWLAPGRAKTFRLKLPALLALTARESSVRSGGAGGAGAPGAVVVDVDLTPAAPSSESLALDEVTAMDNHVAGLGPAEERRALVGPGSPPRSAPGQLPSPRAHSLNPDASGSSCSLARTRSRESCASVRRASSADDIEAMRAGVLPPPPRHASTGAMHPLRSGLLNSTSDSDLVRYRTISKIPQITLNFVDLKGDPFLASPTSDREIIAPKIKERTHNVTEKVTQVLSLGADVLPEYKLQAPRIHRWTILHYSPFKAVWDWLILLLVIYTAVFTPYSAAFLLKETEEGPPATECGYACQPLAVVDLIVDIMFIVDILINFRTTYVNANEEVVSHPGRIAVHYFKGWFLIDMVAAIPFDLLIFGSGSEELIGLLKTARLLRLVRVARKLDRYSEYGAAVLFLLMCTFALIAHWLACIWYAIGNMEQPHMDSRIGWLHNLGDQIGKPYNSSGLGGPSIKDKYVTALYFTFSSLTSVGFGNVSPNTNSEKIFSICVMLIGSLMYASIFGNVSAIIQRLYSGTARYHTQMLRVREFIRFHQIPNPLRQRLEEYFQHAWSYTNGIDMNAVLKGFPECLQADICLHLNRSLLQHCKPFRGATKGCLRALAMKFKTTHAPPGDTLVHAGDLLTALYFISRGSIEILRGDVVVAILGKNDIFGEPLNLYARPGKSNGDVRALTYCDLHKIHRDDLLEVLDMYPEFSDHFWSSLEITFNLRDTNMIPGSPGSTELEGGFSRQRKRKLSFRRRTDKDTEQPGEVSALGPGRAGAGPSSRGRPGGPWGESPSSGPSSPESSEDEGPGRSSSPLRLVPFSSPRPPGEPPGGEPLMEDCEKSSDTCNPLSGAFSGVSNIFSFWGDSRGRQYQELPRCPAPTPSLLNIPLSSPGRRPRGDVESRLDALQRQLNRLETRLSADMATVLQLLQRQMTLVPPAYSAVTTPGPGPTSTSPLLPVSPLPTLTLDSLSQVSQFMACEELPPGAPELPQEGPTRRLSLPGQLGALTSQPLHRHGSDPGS

Row | SMILES | complementation of the growth deficiency by Kv1.5 in the presence of CsCl ([1]; 2 mM CsCl) | complementation of the growth deficiency of the Δtrk1 Δtrk2 Δtok1 mutant by human HERG1 in the presence of activator [2] | complementation of the growth deficiency by gpIRK1 in the presence of CsCl [3] | 256 (average growth of p423GPD-ROMK2 strain YM256, OD) ([4]; DPM-HIS 5 mM KCl, pH 6.5, 24 hours growth, starting OD 0.01) | Signal to noise ratio S/N ([4]; YM256 versus YM194, DPM-HIS 5 mM KCl, pH 6.5, 24 hours) | complementation of the growth deficiency of the Δtrk1 Δtrk2 Δtok1 mutant by human Kv1.5 in the presence of activator ([1]; 2 mM RbCl, culture plates, DPM 5 mM KCl pH 6.5, FIG. 3) | 194 (average growth of p423GPD strain YM194, OD) [5]
1 | [Cl-].[Cs+] [CsCl] | inhibited | fully complementing | inhibited | – | – | – | –
2 | [Cl-].[Rb+] [RbCl] | – | – | – | 0.44 | 8.46 | fully complementing | 0.048
